Settings: Liquid

CN(CCO)CCO [N-methyldiethanolamine]
Settings | mass density [kg/m3]
313.09 K, 1007 kPa | 1025.3
313.09 K, 1989 kPa | 1025.8
313.09 K, 3027 kPa | 1026.4
313.09 K, 4003 kPa | 1026.9
313.09 K, 5004 kPa | 1027.3
313.09 K, 6004 kPa | 1027.8
313.09 K, 6996 kPa | 1028.3
313.09 K, 8006 kPa | 1028.8
313.09 K, 9066 kPa | 1029.4
313.09 K, 10021 kPa | 1029.8
313.09 K, 11008 kPa | 1030.3
313.09 K, 11995 kPa | 1030.8
313.09 K, 13024 kPa | 1031.3
313.09 K, 13984 kPa | 1031.7
313.09 K, 14994 kPa | 1032.2
313.09 K, 15992 kPa | 1032.7
313.09 K, 16977 kPa | 1033.1
313.09 K, 17994 kPa | 1033.6
313.09 K, 19000 kPa | 1034
313.09 K, 19985 kPa | 1034.5
323.01 K, 1003 kPa | 1017.6
323.01 K, 2020 kPa | 1018.2
323.01 K, 3006 kPa | 1018.7
323.01 K, 4031 kPa | 1019.2
323.01 K, 5002 kPa | 1019.7
323.01 K, 6020 kPa | 1020.2
323.01 K, 7003 kPa | 1020.7
323.01 K, 8000 kPa | 1021.2
323.01 K, 9006 kPa | 1021.7
323.01 K, 9991 kPa | 1022.2
323.01 K, 11005 kPa | 1022.7
323.01 K, 12000 kPa | 1023.2
323.01 K, 13010 kPa | 1023.7
323.01 K, 14000 kPa | 1024.2
323.01 K, 14987 kPa | 1024.7
323.01 K, 15987 kPa | 1025.2
323.01 K, 17012 kPa | 1025.6
323.01 K, 17991 kPa | 1026.1
323.01 K, 18995 kPa | 1026.6
323.01 K, 20012 kPa | 1027.1
332.95 K, 1045 kPa | 1009.9
332.95 K, 2032 kPa | 1010.5
332.95 K, 2995 kPa | 1011
332.95 K, 3991 kPa | 1011.6
332.95 K, 4983 kPa | 1012.1
332.95 K, 6016 kPa | 1012.6
332.95 K, 6998 kPa | 1013.2
332.95 K, 8009 kPa | 1013.7
332.95 K, 8993 kPa | 1014.2
332.95 K, 9991 kPa | 1014.7
332.95 K, 10985 kPa | 1015.3
332.95 K, 12014 kPa | 1015.8
332.95 K, 13079 kPa | 1016.3
332.95 K, 13992 kPa | 1016.8
332.95 K, 14999 kPa | 1017.3
332.95 K, 15997 kPa | 1017.8
332.95 K, 16989 kPa | 1018.3
332.95 K, 17997 kPa | 1018.8
332.95 K, 19011 kPa | 1019.3
332.95 K, 19963 kPa | 1019.7
342.78 K, 1004 kPa | 1002
342.78 K, 1998 kPa | 1002.6
342.78 K, 3050 kPa | 1003.2
342.78 K, 4015 kPa | 1003.7
342.78 K, 4998 kPa | 1004.3
342.78 K, 6020 kPa | 1004.9
342.78 K, 7011 kPa | 1005.4
342.78 K, 8034 kPa | 1006
342.78 K, 9001 kPa | 1006.5
342.78 K, 10000 kPa | 1007.1
342.78 K, 11000 kPa | 1007.6
342.78 K, 12012 kPa | 1008.2
342.78 K, 12947 kPa | 1008.7
342.78 K, 13991 kPa | 1009.2
342.78 K, 15001 kPa | 1009.8
342.78 K, 15987 kPa | 1010.3
342.78 K, 16998 kPa | 1010.8
342.78 K, 18005 kPa | 1011.3
342.78 K, 18981 kPa | 1011.9
342.78 K, 19980 kPa | 1012.4
352.68 K, 1013 kPa | 994.4
352.68 K, 2013 kPa | 995
352.68 K, 3004 kPa | 995.6
352.68 K, 3999 kPa | 996.1
352.68 K, 5003 kPa | 996.8
352.68 K, 6019 kPa | 997.3
352.68 K, 7005 kPa | 997.8
352.68 K, 8001 kPa | 998.4
352.68 K, 8984 kPa | 999
352.68 K, 9981 kPa | 999.5
352.68 K, 11029 kPa | 1000.2
352.68 K, 11980 kPa | 1000.7
352.68 K, 13051 kPa | 1001.3
352.68 K, 14000 kPa | 1001.8
352.68 K, 14988 kPa | 1002.4
352.68 K, 16018 kPa | 1002.9
352.68 K, 16978 kPa | 1003.4
352.68 K, 17977 kPa | 1004
352.68 K, 19003 kPa | 1004.5
352.68 K, 19990 kPa | 1005.1
362.52 K, 1005 kPa | 986.7
362.52 K, 2045 kPa | 987.3
362.52 K, 2982 kPa | 987.8
362.52 K, 4026 kPa | 988.4
362.52 K, 5007 kPa | 988.9
362.52 K, 6014 kPa | 989.5
362.52 K, 7015 kPa | 990.2
362.52 K, 7998 kPa | 990.8
362.52 K, 9003 kPa | 991.3
362.52 K, 9986 kPa | 991.9
362.52 K, 10996 kPa | 992.5
362.52 K, 12008 kPa | 993.1
362.52 K, 13004 kPa | 993.7
362.52 K, 13985 kPa | 994.2
362.52 K, 15010 kPa | 994.8
362.52 K, 15983 kPa | 995.4
362.52 K, 17007 kPa | 995.7
362.52 K, 17985 kPa | 996.3
362.52 K, 18994 kPa | 996.9
362.52 K, 19994 kPa | 997.4

— the NIST ThermoML archive (doi:10.1021/je700287u)
